pIC50: −log10 of the molar value.
Legend:
[1] = system: CCRF-CEM human acute lymphoblastic leukemia cell line; assay: MTT antiproliferative assay, CCRF-CEM; assay type: cell-based
Procedure: (§1) The antiproliferative activity and cytotoxicity of ester tethered ART-isatin hybrids 7a-u against human myeloid leukemia cell lines (K562 CM-0130 purchased from Procell and K562/ADR AW-CELLS-H0187 purchased from AnWei-sci), human acute lymphoblastic leukemia cell line (CCRF-CEM CL-0058 purchased from Procell) as well as cytotoxicity towards normal human peripheral blood mononuclear cells (PBMCs 230470, purchased from Mingzhoubio) were assessed by 3-(4,5-dimethylthiazol-2-yl)-2,5-diphenyltetrazolium bromide (MTT) assay.
(§2) Medium in wells was replaced after 24 h with fresh medium containing the tested compounds in DMSO (1% v/v) and incubated for 72 h. […] 3-(4,5-dimethyl-2-thiazolyl)-2,5-diphenyltetrazolium bromide (MTT) solution (10 µL) was added to each well, and the cultures were incubated for an additional 4 h at 37°C. A further 100 µL of […] was added and incubation continued overnight at 37°C. The absorbance at 540 nm was determined in each well with a 96-well plate reader. The growth of the treated cells was compared with that of untreated cells. Half maximum inhibitory concentration (IC50) is a measurement of the efficacy of a substance in inhibiting a specific biological or biochemical process. […] In this experiment, the dose-response curve constructed by Spss22.0 software was used to calculate the inhibitory effect of the hybrid (0 μM-100 μM) on the activity of leukemia cell lines. Each experiment was performed independently in triplicate with three tests in each, and results were reported as mean inhibitory concentration IC50.

[2] = system: K562 human myeloid leukemia cell line; assay: MTT antiproliferative assay, K562; assay type: cell-based
Procedure: as §1, §2

[3] = system: K562/ADR human myeloid leukemia cell line; assay: MTT antiproliferative assay, K562/ADR; assay type: cell-based
Procedure: as §1, with “assay. The antiproliferative activity was expressed by half maximal inhibitory concentration (IC50) values, which were presented in Table 2 .” for “assay.”
as §2

[4] = MTT cytotoxicity assay, normal PBMCs; assay type: cell-based, human; conditions: normal peripheral blood mononuclear cells (PBMCs); MTT assay, normal human PBMCs
Procedure: as §1

[5] = system: normal human peripheral blood mononuclear cells (PBMCs); assay: MTT cytotoxicity assay, normal PBMCs; assay type: cell-based; conditions: PBMCs vs CCRF-CEM
Procedure: as §1

SMILES	pIC50 [1]	pIC50 [2]	pIC50 [3]	pIC50 [4]	SI, Selectivity index, IC50(PBMCs)/IC50(CCRF-CEM) [5]
CCON=C1C(=O)N(CCC(=O)OC2O[C@@H]3O[C@@]4(C)CC[C@H]5[C@H](C)CC[C@@H]([C@H]2C)[C@@]35OO4)c2ccc(F)cc21 (stereo partly drawn) [hybrid 7i, (3R,5aS,6R,8aS,9R,12R,12aR)-3,6,9-trimethyldecahydro-12H-3,12-epoxy[1,2]dioxepino[4,3-i]isochromen-10-yl 3-(3-(ethoxyimino)-5-fluoro-2-oxoindolin-1-yl)propanoate]	< 4.00	4.80	< 4.00	–	–
O=C(CCCCCCC(=O)Nc1ccccc1)NO [Vorinostat, reference compound]	–	–	5.66	–	–
C[C@@H]1CC[C@H]2[C@@H](C)C(OC(=O)CCCN3C(=O)C(=NOCc4ccccc4)c4cc(F)ccc43)O[C@@H]3O[C@@]4(C)CC[C@@H]1[C@]32OO4 (stereo partly drawn) [hybrid 7r, (3R,5aS,6R,8aS,9R,12R,12aR)-3,6,9-trimethyldecahydro-12H-3,12-epoxy[1,2]dioxepino[4,3-i]isochromen-10-yl 4-(3-[(benzyloxy)imino)-5-fluoro-2-oxoindolin-1-yl]butanoate]	5.04	5.20	< 4.00	< 4.00	>10.85
C[C@@H]1CC[C@H]2[C@@H](C)C(=O)O[C@@H]3O[C@@]4(C)CC[C@@H]1[C@]32OO4 [ART, Artemisinin]	< 4.00	< 4.00	< 4.00	–	–
CON=C1C(=O)N(CC(=O)OC2O[C@@H]3O[C@@]4(C)CC[C@H]5[C@H](C)CC[C@@H]([C@H]2C)[C@@]35OO4)c2ccccc21 (stereo partly drawn) [hybrid 7a, (3R,5aS,6R,8aS,9R,12R,12aR)-3,6,9-trimethyldecahydro-12H-3,12-epoxy[1,2]dioxepino[4,3-i]isochromen-10-yl 2-(3-(methoxyimino)-2-oxoindolin-1-yl)acetate]	5.42	4.47	4.30	< 4.00	>26.10
CON=C1C(=O)N(CCC(=O)OC2O[C@@H]3O[C@@]4(C)CC[C@H]5[C@H](C)CC[C@@H]([C@H]2C)[C@@]35OO4)c2ccc(F)cc21 (stereo partly drawn) [hybrid 7h, (3R,5aS,6R,8aS,9R,12R,12aR)-3,6,9-trimethyldecahydro-12H-3,12-epoxy[1,2]dioxepino[4,3-i]isochromen-10-yl 3-(5-fluoro-3-(methoxyimino)-2-oxoindolin-1-yl)propanoate]	5.88	< 4.00	4.79	< 4.00	>76.33
COc1cccc2c1C(=O)c1c(O)c3c(c(O)c1C2=O)C[C@@](O)(C(=O)CO)C[C@@H]3O[C@H]1C[C@H](N)[C@H](O)[C@H](C)O1 [Adriamycin, reference compound]	8.00	5.31	< 4.00	4.33	4690
CON=C1C(=O)N(CCCC(=O)OC2O[C@@H]3O[C@@]4(C)CC[C@H]5[C@H](C)CC[C@@H]([C@H]2C)[C@@]35OO4)c2ccc(OC)cc21 (stereo partly drawn) [hybrid 7s, (3R,5aS,6R,8aS,9R,12R,12aR)-3,6,9-trimethyldecahydro-12H-3,12-epoxy[1,2]dioxepino[4,3-i]isochromen-10-yl 4-(5-methoxy-3-(methoxyimino)-2-oxoindolin-1-yl)butanoate]	5.42	< 4.00	< 4.00	< 4.00	>26.17
CON=C1C(=O)N(CC(=O)OC2O[C@@H]3O[C@@]4(C)CC[C@H]5[C@H](C)CC[C@@H]([C@H]2C)[C@@]35OO4)c2ccc(F)cc21 (stereo partly drawn) [hybrid 7c, (3R,5aS,6R,8aS,9R,12R,12aR)-3,6,9-trimethyldecahydro-12H-3,12-epoxy[1,2]dioxepino[4,3-i]isochromen-10-yl 2-(5-fluoro-3-(methoxyimino)-2-oxoindolin-1-yl)acetate]	4.53	< 4.00	< 4.00	< 4.00	–
CCON=C1C(=O)N(CCC(=O)OC2O[C@@H]3O[C@@]4(C)CC[C@H]5[C@H](C)CC[C@@H]([C@H]2C)[C@@]35OO4)c2ccccc21 (stereo partly drawn) [hybrid 7f, (3R,5aS,6R,8aS,9R,12R,12aR)-3,6,9-trimethyldecahydro-12H-3,12-epoxy[1,2]dioxepino[4,3-i]isochromen-10-yl 3-(3-(ethoxyimino)-2-oxoindolin-1-yl)propanoate]	5.04	5.24	< 4.00	< 4.00	>10.91
CON=C1C(=O)N(CCCC(=O)OC2O[C@@H]3O[C@@]4(C)CC[C@H]5[C@H](C)CC[C@@H]([C@H]2C)[C@@]35OO4)c2ccccc21 (stereo partly drawn) [hybrid 7m, (3R,5aS,6R,8aS,9R,12R,12aR)-3,6,9-trimethyldecahydro-12H-3,12-epoxy[1,2]dioxepino[4,3-i]isochromen-10-yl 4-(3-(methoxyimino)-2-oxoindolin-1-yl)butanoate]	5.56	< 4.00	< 4.00	< 4.00	>35.97
C[C@@H]1CC[C@H]2[C@@H](C)C(OC(=O)CCN3C(=O)C(=NOCc4ccccc4)c4cc(F)ccc43)O[C@@H]3O[C@@]4(C)CC[C@@H]1[C@]32OO4 (stereo partly drawn) [hybrid 7j, (3R,5aS,6R,8aS,9R,12R,12aR)-3,6,9-trimethyldecahydro-12H-3,12-epoxy[1,2]dioxepino[4,3-i]isochromen-10-yl 3-(3-[(benzyloxy)imino)-5-fluoro-2-oxoindolin-1-yl]propanoate]	< 4.00	< 4.00	5.42	–	–
C[C@@H]1CC[C@H]2[C@@H](C)C(OC(=O)CCCN3C(=O)C(=NOCc4ccccc4)c4ccccc43)O[C@@H]3O[C@@]4(C)CC[C@@H]1[C@]32OO4 (stereo partly drawn) [hybrid 7o, (3R,5aS,6R,8aS,9R,12R,12aR)-3,6,9-trimethyldecahydro-12H-3,12-epoxy[1,2]dioxepino[4,3-i]isochromen-10-yl 4-(3-[(benzyloxy)imino)-2-oxoindolin-1-yl]butanoate]	< 4.00	< 4.00	< 4.00	–	–
CCON=C1C(=O)N(CCCC(=O)OC2O[C@@H]3O[C@@]4(C)CC[C@H]5[C@H](C)CC[C@@H]([C@H]2C)[C@@]35OO4)c2ccccc21 (stereo partly drawn) [hybrid 7n, (3R,5aS,6R,8aS,9R,12R,12aR)-3,6,9-trimethyldecahydro-12H-3,12-epoxy[1,2]dioxepino[4,3-i]isochromen-10-yl 4-(3-(ethoxyimino)-2-oxoindolin-1-yl)butanoate]	< 4.00	< 4.00	< 4.00	–	–
C[C@@H]1CC[C@H]2[C@@H](C)C(OC(=O)CCN3C(=O)C(=NOCc4ccccc4)c4ccccc43)O[C@@H]3O[C@@]4(C)CC[C@@H]1[C@]32OO4 (stereo partly drawn) [hybrid 7g, (3R,5aS,6R,8aS,9R,12R,12aR)-3,6,9-trimethyldecahydro-12H-3,12-epoxy[1,2]dioxepino[4,3-i]isochromen-10-yl 3-(3-[(benzyloxy)imino)-2-oxoindolin-1-yl]propanoate]	< 4.00	< 4.00	< 4.00	–	–
C[C@@H]1CC[C@H]2[C@@H](C)C(OC(=O)CN3C(=O)C(=NOCc4ccccc4)c4ccccc43)O[C@@H]3O[C@@]4(C)CC[C@@H]1[C@]32OO4 (stereo partly drawn) [hybrid 7b, (3R,5aS,6R,8aS,9R,12R,12aR)-3,6,9-trimethyldecahydro-12H-3,12-epoxy[1,2]dioxepino[4,3-i]isochromen-10-yl 2-(3-[(benzyloxy)imino)-2-oxoindolin-1-yl]acetate]	< 4.00	< 4.00	< 4.00	–	–

— paper PMC10140581, “Development and evaluation of novel artemisinin-isatin hybrids with potential anti-leukemic cytotoxicity” (Frontiers in Oncology, 2023)
